Measured values reported in PubChem BioAssay (NCI).
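The concentration for 50% growth inhibition is given as GI50. Definition used: TGI = concentration required for complete inhibition of growth.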

Legend:
Assay in all cases: NCI tumour cell line growth inhibition, 384-well format
[1] = test system: SK-MEL-28 melanoma
[2] = test system: DU-145 prostate
[3] = test system: RXF 393 renal
[4] = test system: OVCAR-5 ovarian
[5] = test system: HCT-116 colon
[6] = test system: SF-268 CNS
[7] = test system: UACC-62 melanoma
[8] = test system: MDA-MB-231 breast
[9] = test system: MCF7 breast
[10] = test system: HCT-15 colon
[11] = test system: M14 melanoma
[12] = test system: COLO 205 colon
[13] = test system: SW-620 colon
[14] = test system: ACHN renal
[15] = test system: CAKI-1 renal
[16] = test system: KM12 colon
[17] = test system: NCI-H23 lung
[18] = test system: NCI-H522 lung
[19] = test system: SF-539 CNS
[20] = test system: NCI-H460 NSCLC
[21] = test system: SF-295 CNS
[22] = test system: LOX IMVI melanoma
[23] = test system: BT-549 breast
[24] = test system: IGROV1 ovarian
[25] = test system: SK-MEL-5 melanoma
[26] = test system: T-47D breast
[27] = test system: U251 glioblastoma
[28] = test system: A549 NSCLC
[29] = test system: SNB-19 CNS

`Cn1ncnc1[C@@H]1c2n[nH]c(=O)c3cc(F)cc(c23)N[C@H]1c1ccc(F)cc1` was tested, and the GI50 [1] was over 100 µM, the TGI [1] was over 100 µM and the GI50 [2] was over 100 µM. The TGI [2] was over 100 µM, the GI50 [3] was 52.3 µM and the TGI [3] was over 100 µM. It also gave a GI50 [4] of over 100 µM, a TGI [4] of over 100 µM and a GI50 [5] of 74.9 µM. The TGI [5] was over 100 µM, the GI50 [6] was over 100 µM and the TGI [6] was over 100 µM. For the same compound, the GI50 [7] was over 100 µM, the TGI [7] was over 100 µM and the GI50 [8] was over 100 µM. For the same compound, the TGI [8] was over 100 µM, the GI50 [9] was over 100 µM and the TGI [9] was over 100 µM. It also gave a GI50 [10] of over 100 µM, a TGI [10] of over 100 µM and a GI50 [11] of over 100 µM. It also gave a TGI [11] of over 100 µM, a GI50 [12] of over 100 µM and a TGI [12] of over 100 µM. For the same compound, the GI50 [13] was 70.9 µM, the TGI [13] was over 100 µM and the GI50 [14] was over 100 µM. For the same compound, the TGI [14] was over 100 µM, the GI50 [15] was over 100 µM and the TGI [15] was over 100 µM. For the same compound, the GI50 [16] was over 100 µM, the TGI [16] was over 100 µM and the GI50 [17] was over 100 µM. It also gave a TGI [17] of over 100 µM, a GI50 [18] of 97.7 µM and a TGI [18] of over 100 µM. The GI50 [19] was over 100 µM, the TGI [19] was over 100 µM and the GI50 [20] was 17.3 µM. The TGI [20] was over 100 µM, the GI50 [21] was over 100 µM and the TGI [21] was over 100 µM. It also gave a GI50 [22] of over 100 µM, a TGI [22] of over 100 µM and a GI50 [23] of over 100 µM. For the same compound, the TGI [23] was over 100 µM, the GI50 [24] was over 100 µM and the TGI [24] was over 100 µM. For the same compound, the GI50 [25] was over 100 µM, the TGI [25] was over 100 µM and the GI50 [26] was over 100 µM. The TGI [26] was over 100 µM, the GI50 [27] was over 100 µM and the TGI [27] was over 100 µM. The GI50 [28] was over 100 µM, the TGI [28] was over 100 µM and the GI50 [29] was over 100 µM.
